Assay results as given in patent publication US7063946B2, “Methods, reagents, kits and apparatus for protein function analysis” (Meso Scale Technologies, LLC., priority 2001, dated 2006).

Columns and labels:
Type in all cases: biochemical
FGFR2 = molecular target: T1, FGFR2 (Mus musculus, UniProt P21803); assay: Kinase inhibitor profiling, pEY phosphorylation
T1 construct: specificity data for proteins generated from a library of eighteen full-length clones; host or cells: rabbit reticulocyte lysate, TnT coupled in vitro transcription/translation (cell-free)
T1 sequence (P21803 22-821): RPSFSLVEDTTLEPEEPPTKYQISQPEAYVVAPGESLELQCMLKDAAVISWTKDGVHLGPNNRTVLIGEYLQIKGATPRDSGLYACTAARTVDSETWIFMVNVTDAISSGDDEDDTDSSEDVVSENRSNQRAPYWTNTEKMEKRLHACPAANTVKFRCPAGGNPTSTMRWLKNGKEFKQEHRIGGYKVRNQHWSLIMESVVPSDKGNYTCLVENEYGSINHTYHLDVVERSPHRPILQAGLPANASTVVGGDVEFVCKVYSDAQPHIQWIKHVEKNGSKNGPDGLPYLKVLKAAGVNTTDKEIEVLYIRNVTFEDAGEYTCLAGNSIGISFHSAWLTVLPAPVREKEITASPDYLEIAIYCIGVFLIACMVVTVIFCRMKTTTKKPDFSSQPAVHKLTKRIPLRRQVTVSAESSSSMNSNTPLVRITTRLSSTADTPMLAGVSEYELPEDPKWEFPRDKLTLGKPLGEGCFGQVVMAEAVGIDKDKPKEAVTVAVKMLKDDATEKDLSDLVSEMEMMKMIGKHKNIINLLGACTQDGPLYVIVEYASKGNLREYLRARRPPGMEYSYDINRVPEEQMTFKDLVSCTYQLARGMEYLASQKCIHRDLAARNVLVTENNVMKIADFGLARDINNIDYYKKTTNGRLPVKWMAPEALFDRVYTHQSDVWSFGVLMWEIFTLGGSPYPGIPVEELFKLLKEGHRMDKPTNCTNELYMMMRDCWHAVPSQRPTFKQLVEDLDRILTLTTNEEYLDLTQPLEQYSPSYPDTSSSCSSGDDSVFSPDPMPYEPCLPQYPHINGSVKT
Description: (§1) Proteins were produced in an in vitro transcription and translation reaction. […] The unbound components of the reaction containing endogenous kinases were removed by three washes with TT-buffer (25 mM Tris-HCl buffer pH 7.4 and 0.004% Triton), two five minutes washings with high-salt wash buffer (25 mM Tris-HCl buffer pH 7.4, 0.004% Triton, 1M NaCl and 5 mM DTT) and 3 more washes with TT-buffer. To these immobilized and purified proteins a tyrosine kinase substrate, 5 nM pEY (poly Glu-Tyr, Sigma, MO), was added in a 50 μl reaction solution containing 5 mM MgCl2, 5 mM MnCl2, 100 μM ATP, 25 mM Tris-HCl buffer pH 7.4, 0.05 mM Na3VO4, 0.004% TritonX-100, 2 mM DTT and EDTA-free protease inhibitor (Roche Molecular Biochemicals). This mixture was incubated with shaking at room temperature overnight to allow phosphorylation of the pEY substrate by the immobilized kinases. Following this incubation, 45 μl of this mixture was transferred to a streptavidin or avidin-coated NPT IPR plate coated with biotinylated anti-phosphotyrosine antibody (PY20, Zymed labs, CA) followed by incubation for 30 minutes at room temperature to allow the binding of the phosphorylated pEY substrate to the PY20 coated NPT plate. Following this binding step, 50 ng Sulfo-TAG labeled anti-phosphotyrosine in buffer containing 25 mM Tris-HCl buffer pH 7.4, 5 mM MgCl2, 0.05 mM Na3VO4, 0.004% TritonX-100, 2 mM DTT and 0.05% IgG was added followed by incubation at room temperature for 30 mm. The unbound reagents were removed by one time washing with water, and the TAG label was detected in presence of 150 μl IPR assay buffer (0.4 mM Gly-Gly buffer, pH 7.8, 1 mM EDTA, 0.1 M TPA). The ECL signals were measured using an imaging plate reader.
Proteins were produced using 100 ng of plasmid DNA Mock (Luciferase, Promega) or tyrosine kinases (Fert2 IMAGE ID # 4485050, FGFR1 IMAGE ID # 4037899, Fgfr2 IMAGE ID # 2654352, Src IMAGE ID # 3156400, BMX IMAGE ID # 3919253, LCK IMAGE ID # 4191610, Epha7 IMAGE ID # 3991628, Ephb4 IMAGE ID # 4013934, Tek IMAGE ID # 3482498, HCK IMAGE ID # 4778819, BTK IMAGE ID # 4478463, CSK IMAGE ID # 4398416, SYK IMAGE ID # 3870426, FGR IMAGE ID # 4419973, PTK2B IMAGE ID # 4339456, FRK(IMAGE ID # 4515877, Kit IMAGE ID # 2644960, Fgfr-4 IMAGE ID # 4239139, NTRK3 IMAGE ID # 4181574, Kdr IMAGE ID # 4238984, Incyte Genomics, CA) and immobilized on SA or avidin coated NPT-IPR plates as described in previous examples. The unbound components of the translation reaction (including any endogenous kinases) were removed by 3 washes with TT-buffer (25 mM Tris-HCl buffer pH 7.4 and 0.004% Triton), two five minutes washes with high-salt wash buffer (25 mM Tris-HCl buffer pH 7.4, 0.004% Triton, 1M NaCl and 5 mM DTT) and 3 washes with TT-buffer. […] The mixture was incubated at room temperature for 10 mm before starting the kinase reaction by adding 25 μl of 200 μM ATP in buffer A. This mixture was incubated with intermittent shaking at room temperature for 2 hours to overnight to allow (a) phosphorylation of the pEY substrate and (b) autophosphorylation of the immobilized kinases. Autophosphorylation and phosphorylation of the pEY was measured as described in Examples 7 and 8.
The ECL signal in control wells produced by tyrosine kinases was compared to the wells containing inhibitor compounds. The signal produced from Mock was negligible.

BTK = molecular target: T2, BTK (Homo sapiens, UniProt Q06187); assay: Kinase inhibitor profiling, autophosphorylation
T2 construct: specificity data for proteins generated from a library of eighteen full-length clones; host or cells: rabbit reticulocyte lysate, TnT coupled in vitro transcription/translation (cell-free)
T2 sequence (Q06187 whole entry): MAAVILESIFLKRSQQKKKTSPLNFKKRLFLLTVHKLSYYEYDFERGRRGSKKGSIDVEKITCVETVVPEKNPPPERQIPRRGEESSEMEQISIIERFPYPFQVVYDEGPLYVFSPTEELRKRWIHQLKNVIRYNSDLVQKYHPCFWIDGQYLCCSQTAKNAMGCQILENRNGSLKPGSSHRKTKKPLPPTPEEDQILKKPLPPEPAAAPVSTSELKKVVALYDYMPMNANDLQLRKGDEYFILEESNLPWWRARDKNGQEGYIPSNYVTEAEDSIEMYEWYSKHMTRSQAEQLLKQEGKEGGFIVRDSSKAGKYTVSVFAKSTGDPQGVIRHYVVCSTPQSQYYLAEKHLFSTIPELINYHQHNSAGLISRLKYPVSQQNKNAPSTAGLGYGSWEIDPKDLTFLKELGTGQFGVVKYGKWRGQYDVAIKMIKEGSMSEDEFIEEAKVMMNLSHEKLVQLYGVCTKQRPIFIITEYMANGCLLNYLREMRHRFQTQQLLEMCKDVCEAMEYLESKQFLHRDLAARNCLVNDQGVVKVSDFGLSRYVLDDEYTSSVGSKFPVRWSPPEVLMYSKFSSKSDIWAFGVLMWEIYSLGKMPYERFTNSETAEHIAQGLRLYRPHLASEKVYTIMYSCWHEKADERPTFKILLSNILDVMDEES

Kdr [1] = molecular target: T3, Kdr (Mus musculus, UniProt P35918); assay: Kinase inhibitor profiling, autophosphorylation
T3 construct: specificity data for proteins generated from a library of eighteen full-length clones; biotin on random lysines (biotin-Lys-tRNA); host or cells: rabbit reticulocyte lysate, coupled transcription/translation (TnT, Promega)
T3 sequence (P35918 20-1345): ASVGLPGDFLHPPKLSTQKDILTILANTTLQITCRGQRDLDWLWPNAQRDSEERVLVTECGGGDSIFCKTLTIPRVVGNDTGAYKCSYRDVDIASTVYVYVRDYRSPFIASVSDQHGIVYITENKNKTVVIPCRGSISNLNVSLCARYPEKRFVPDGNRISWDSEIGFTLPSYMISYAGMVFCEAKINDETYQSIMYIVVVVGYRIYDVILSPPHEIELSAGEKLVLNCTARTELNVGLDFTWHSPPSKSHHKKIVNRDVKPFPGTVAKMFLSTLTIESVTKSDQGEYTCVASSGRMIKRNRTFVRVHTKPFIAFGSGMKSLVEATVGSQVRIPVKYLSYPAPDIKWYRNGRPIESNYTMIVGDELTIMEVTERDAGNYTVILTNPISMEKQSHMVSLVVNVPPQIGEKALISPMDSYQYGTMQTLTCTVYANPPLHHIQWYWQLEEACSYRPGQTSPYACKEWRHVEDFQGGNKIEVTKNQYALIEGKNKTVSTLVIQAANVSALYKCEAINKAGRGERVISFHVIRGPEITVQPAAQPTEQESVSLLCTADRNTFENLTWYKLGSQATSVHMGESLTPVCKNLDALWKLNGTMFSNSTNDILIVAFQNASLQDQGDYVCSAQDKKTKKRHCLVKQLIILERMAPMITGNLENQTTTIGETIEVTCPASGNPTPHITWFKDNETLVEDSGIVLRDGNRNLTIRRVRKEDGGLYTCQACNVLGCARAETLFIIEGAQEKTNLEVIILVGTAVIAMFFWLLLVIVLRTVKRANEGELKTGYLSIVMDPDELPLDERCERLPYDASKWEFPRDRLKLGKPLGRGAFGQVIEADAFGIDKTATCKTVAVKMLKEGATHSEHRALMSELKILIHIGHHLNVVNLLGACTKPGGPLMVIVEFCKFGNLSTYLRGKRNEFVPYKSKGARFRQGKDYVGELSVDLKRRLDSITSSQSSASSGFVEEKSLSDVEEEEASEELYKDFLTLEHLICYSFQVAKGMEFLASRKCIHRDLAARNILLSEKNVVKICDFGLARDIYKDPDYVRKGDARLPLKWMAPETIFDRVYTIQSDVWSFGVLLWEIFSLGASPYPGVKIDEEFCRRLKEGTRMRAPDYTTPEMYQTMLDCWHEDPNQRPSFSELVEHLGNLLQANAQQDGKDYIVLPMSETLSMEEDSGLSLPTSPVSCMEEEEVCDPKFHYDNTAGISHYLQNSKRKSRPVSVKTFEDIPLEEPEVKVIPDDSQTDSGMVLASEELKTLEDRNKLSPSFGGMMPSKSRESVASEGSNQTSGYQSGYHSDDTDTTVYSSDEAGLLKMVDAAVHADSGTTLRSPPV
Description: Proteins were produced from DNA plasmids of Mock Luciferase, Promega, tyrosine kinase clone Spleen Tyrosine kinase (SYK, IMAGE ID# 3870426) and Eph receptor-A7 (EphA7, IMAGE ID# 3991628) (Incyte Genomics, CA) and immobilized on streptavidin or avidin coated NPT-IPR plates as described in the Example 7. To promote autophosphorylation in these immobilized and purified proteins, Mn++ ions were added in a 50 μl reaction containing 5 mM MgCl2, 5 mM MnCl2, 100 μM ATP, 25 mM Tris-HCl buffer pH 7.4, 0.05 mM Na3VO4, 0.004% TritonX-100, 2 mM DTT and EDTA-free protease inhibitor (Roche Molecular Biochemicals). This mixture was incubated with shaking at room temperature overnight to allow autophosphorylation. Following this incubation, wells were washed 2 times with TT-buffer and 2 times with water. Following this step, 50 ng Sulfo-TAG labeled anti-phosphotyrosine in buffer containing 25 mM Tris-HCl buffer pH 7.4, 5 mM MgCl2, 0.05 mM Na3VO4, 0.004% TritonX-100, 2 mM DTT and 0.05% IgG in a final volume of 50 μl was added followed by incubation at room temperature for 45 min. The unbound reagents were removed by one time washing with water, and the TAG label was detected in presence of 150 μl IPR assay buffer (0.4 mM Gly—Gly buffer, pH 7.8, 1 mM EDTA, 0.1 M TPA). The ECL signals were measured using an imaging plate reader.
(§2) The unbound components of the translation reaction (including any endogenous kinases) were removed by 3 washes with TT-buffer (25 mM Tris-HCl buffer pH 7.4 and 0.004% Triton), two five minutes washes with high-salt wash buffer (25 mM Tris-HCl buffer pH 7.4, 0.004% Triton, 1M NaCl and 5 mM DTT) and 3 washes with TT-buffer. […] The mixture was incubated at room temperature for 10 mm before starting the kinase reaction by adding 25 μl of 200 μM ATP in buffer A. This mixture was incubated with intermittent shaking at room temperature for 2 hours to overnight to allow (a) phosphorylation of the pEY substrate and (b) autophosphorylation of the immobilized kinases. Autophosphorylation and phosphorylation of the pEY was measured as described in Examples 7 and 8.
(§3) The ECL signal in control wells produced by tyrosine kinases was compared to the wells containing inhibitor compounds.

Kdr [2] = molecular target: T3, Kdr; assay: Kinase inhibitor profiling, pEY phosphorylation
Description: as §1, §2, §3

| Compound | Inhibition specificity towards pEY phosphorylation at 10X IC50, FGFR2 (FGFR2) | Inhibition specificity towards Autophosphorylation at 10X IC50, BTK (BTK) | Inhibition specificity towards Autophosphorylation at 10X IC50, Kdr (Kdr [1]) | Inhibition specificity towards pEY phosphorylation at 10X IC50, Kdr (Kdr [2]) |
| --- | --- | --- | --- | --- |
| COC(=O)c1ccc(NCc2cc(O)ccc2O)cc1 [AG-957] | L (low inhibition (“L”=between 50–75% of the activity remaining)) | L (low inhibition (“L”=between 50–75% of the activity remaining)) | L (low inhibition (“L”=between 50–75% of the activity remaining)) |  |
| CC(C)(C)c1cc(C=C(C#N)C#N)cc(Br)c1O [AG-1024] | L (low inhibition (“L”=between 50–75% of the activity remaining)) | L (low inhibition (“L”=between 50–75% of the activity remaining)) |  | M (medium inhibition (“M”=between 25 to 50% of the activity remaining)) |
| Cc1cc2ncc(-c3ccc(O)c(O)c3)nc2cc1C [AG-1433] | H (high inhibition (“H”=less than 25% of the activity remaining)) | H (high inhibition (“H”=less than 25% of the activity remaining)) | H (high inhibition (“H”=less than 25% of the activity remaining)) | H (high inhibition (“H”=less than 25% of the activity remaining)) |
| COc1c(C=O)c(O)cc2c1C(=O)c1ccccc1C2=O [Damnacanthal] | H (high inhibition (“H”=less than 25% of the activity remaining)) | H (high inhibition (“H”=less than 25% of the activity remaining)) | H (high inhibition (“H”=less than 25% of the activity remaining)) | H (high inhibition (“H”=less than 25% of the activity remaining)) |
| Cc1ccc(-c2nn(C(C)(C)C)c3ncnc(N)c23)cc1 [PP1] |  |  | L (low inhibition (“L”=between 50–75% of the activity remaining)) | M (medium inhibition (“M”=between 25 to 50% of the activity remaining)) |
| COc1cc2ncnc(Nc3ccc(Cl)cc3F)c2cc1OC [VEGFR inhibitor] | L (low inhibition (“L”=between 50–75% of the activity remaining)) | L (low inhibition (“L”=between 50–75% of the activity remaining)) | M (medium inhibition (“M”=between 25 to 50% of the activity remaining)) | H (high inhibition (“H”=less than 25% of the activity remaining)) |
| COc1cc2ncnc(Nc3ccc(O)cc3)c2cc1OC [WHI-P131] | L (low inhibition (“L”=between 50–75% of the activity remaining)) |  | M (medium inhibition (“M”=between 25 to 50% of the activity remaining)) | H (high inhibition (“H”=less than 25% of the activity remaining)) |
| Erbstatin analog |  | L (low inhibition (“L”=between 50–75% of the activity remaining)) | L (low inhibition (“L”=between 50–75% of the activity remaining)) |  |
